# Measured values reported in US11447504B2, “Macrocyclic chlorine substituted indole derivatives” (Bayer Aktiengesellschaft, priority 2017, dated 2022).
# Structures can show the parent of a compound that is named as a salt. Where two headings read alike, the source gives them in different places.
# How the values were obtained:
# SUDHL10 [1] = test: Induction of caspase-3/7 activity (Assay 4), SUDHL10; type: cell-based; conditions: SUDHL10 cells
# Method: (§1) Induction of Caspase-3/7 Activity Upon Treatment of Cells with Selected Compounds
# In contrast, MCL-1 inhibitors are expected to antagonize this effect leading to an increase in apoptosis, which can be determined by measuring the activity of caspase-3/7.
# (§2) The activity of caspase-3/7 was determined in DLBCL (Diffuse large B-cell lymphoma) cell lines (SUDHL5 and SUDHL10) upon treatment with different compounds, using the Caspase-Glo®3/7 reagent from Promega (G8092).
# (§3) Rim wells were excluded. The cells were incubated for 3 hours in a humidified incubator at 37° C.
# (§4) For the evaluation of the results, the background measured with “medium-only” was subtracted from all other values.
# AMO-1 = test: Antiproliferation assay 7, AMO-1; type: cell-based; conditions: AMO-1 cells, CellTiter-Glo, read-out: Antiproli AMO-1 IC50 median
# Method: (§5) Assessment of the Anti-Proliferative Effect of Compounds in Different Cell Lines
# (§6) The impact of compounds on the proliferation of different cell lines was assessed using the CellTiter-Glo® Luminescent Cell Viability reagent from Promega (G7573).
# (§7) In parallel, cells were plated in a reference (day 0) plate for time zero determination.
# (§8) Rim wells were excluded. The cells were incubated for 72 hours in a humidified incubator at 37° C. The day 0 plate was measured by adding 30 μL/well of CTG solution (CellTiter-Glo® Luminescent Cell Viability reagent, Promega G7573) to time zero wells in the reference plate followed by a 10 minutes incubation and luminescence reading at 0.1 ms. using the PHERAstar FS microplate reader (BMG Labtech).
# (§9) After 72 hours incubation, the treated plates were measured in the same way as the day 0 plate mentioned above.
# SUDHL5 [2] = test: Antiproliferation assay 7, SUDHL5; type: cell-based; conditions: SUDHL5 cells, CellTiter-Glo, read-out: Antiproli SUDHL5 IC50 (median)
# Method: as §5, §6, §7, §8, §9
# HMC-1-8 = test: Antiproliferation assay 7, HMC-1-8; type: cell-based; conditions: HMC-1-8 cells, CellTiter-Glo, read-out: Antiproli HMC-1-8 IC50 median
# Method: as §5, §6, §7, §8, §9
# SUDHL5 [3] = test: Induction of cytotoxicity (Assay 6), SUDHL5
# SUDHL5 [4] = test: Induction of caspase-3/7 activity (Assay 4), SUDHL5; type: cell-based; conditions: SUDHL5 cells
# Method: as §1
# The BH3-domain of MCL-1 sequesters pro-apoptotic proteins, thereby inhibiting apoptosis. In contrast, MCL-1 inhibitors are expected to antagonize this effect leading to an increase in apoptosis, which can be determined by measuring the activity of caspase-3/7.
# as §2, §3, §4
# SUDHL10 [5] = test: Induction of cytotoxicity (Assay 6), SUDHL10
# [6] = Homo sapiens, SU-DHL10, 3 h, Caspase-Glo 3/7, read-out: Caspase SUDHL10 EC50 (median)
# [7] = Homo sapiens, SU-DHL-5, 5 h, read-out: Cytotox SUDHL5 IC50 (median), SUDHL5 cells, 5 hours, CellTiter-Glo
# [8] = Homo sapiens, SU-DHL-5, 3 h, Caspase-Glo 3/7, read-out: Caspase SUDHL5 EC50 (median)
# [9] = Homo sapiens, SU-DHL10, 5 h, read-out: Cytotox SUDHL10 IC50 (median), SUDHL10 cells, 5 hours, CellTiter-Glo
# [10] = 3 hours, Caspase-Glo 3/7, read-out: Caspase SUDHL10 EC50 (median)
# [11] = read-out: Cytotox SUDHL5 IC50 (median), SUDHL5 cells, 5 hours, CellTiter-Glo
# [12] = 3 hours, Caspase-Glo 3/7, read-out: Caspase SUDHL5 EC50 (median)
# [13] = read-out: Cytotox SUDHL10 IC50 (median), SUDHL10 cells, 5 hours, CellTiter-Glo
smiles,measurement,setting,value
"CCc1c2c(nn1C)CCCCCCn1c(C(=O)O)c(CCCOc3cccc4cc(F)ccc34)c3ccc(Cl)c-2c31 (racemic) [Example 54, (rac)-4-chloro-3-ethyl-7-{3-[(6-fluoronaphthalen-1-yl)oxy]propyl}-2-methyl-10,11,12,13,14,15-hexahydro-2H-pyrazolo[4′,3′:4,5]azacycloundecino[3,2,1-hi]indole-8-carboxylic Acid]",EC50,SUDHL10 [1]; [6],520 nM
same,IC50,"AMO-1; Homo sapiens, AMO1, 72 h",1350 nM
same,IC50,"SUDHL5 [2]; Homo sapiens, SU-DHL-5, 72 h",430 nM
same,IC50,HMC-1-8; 72 h,2210 nM
same,IC50,SUDHL5 [3]; [7],670 nM
same,EC50,SUDHL5 [4]; [8],600 nM
same,IC50,SUDHL10 [5]; [9],740 nM
"Cc1c2c(nn1C)CN(CC(F)(F)F)CCCCn1c(C(=O)O)c(CCCOc3cccc4cc(F)ccc34)c3ccc(Cl)c-2c31 (racemic) [Example 58, (rac)-4-chloro-7-{3-[(6-fluoronaphthalen-1-yl)oxy]propyl}-2,3-dimethyl-14-(2,2,2-trifluoroethyl)-10,11,12,13,14,15-hexahydro-2H-pyrazolo[3′,4′:8,9][1,6]diazacycloundecino[10,11,1-hi]indole-8-carboxylic Acid]",EC50,SUDHL10 [1]; [6],440 nM
same,IC50,"AMO-1; Homo sapiens, AMO1, 72 h",683 nM
same,IC50,"SUDHL5 [2]; Homo sapiens, SU-DHL-5, 72 h",250 nM
same,IC50,HMC-1-8; 72 h,1720 nM
same,IC50,SUDHL5 [3]; [7],340 nM
same,EC50,SUDHL5 [4]; [8],330 nM
same,IC50,SUDHL10 [5]; [9],530 nM
"Cc1c2c(nn1C)OCCCCCn1c(C(=O)O)c(CCCOc3cccc4cc(F)ccc34)c3ccc(Cl)c-2c31 (racemic) [Example 83, (rac)-4-chloro-7-{3-[(6-fluoronaphthalen-1-yl)oxy]propyl}-2,3-dimethyl-11,12,13,14-tetrahydro-2H,10H-pyrazolo[3′,4′:2,3][1,6]oxazacycloundecino[4,5,6-hi]indole-8-carboxylic Acid]",EC50,SUDHL10 [1]; [10],980 nM
same,IC50,AMO-1; 72 hours,730 nM
same,IC50,SUDHL5 [2]; 72 hours,380 nM
same,IC50,HMC-1-8; 72 hours,7900 nM
same,IC50,SUDHL5 [3]; [11],660 nM
same,EC50,SUDHL5 [4]; [12],610 nM
same,IC50,SUDHL10 [5]; [13],1100 nM
"CCc1c2c(nn1C)CCCCCCn1c(C(=O)O)c(CCCOc3cccc4ccccc34)c3ccc(Cl)c-2c31 (single isomer, unassigned; enantiomer 1) [Example 52, (+)-4-chloro-3-ethyl-2-methyl-7-{3-[(naphthalen-1-yl)oxy]propyl}-10,11,12,13,14,15-hexahydro-2H-pyrazolo[4′,3′:4,5]azacycloundecino[3,2,1-hi]indole-8-carboxylic acid-N-ethylethanamine Salt—Enantiomer 1]",IC50,AMO-1; 72 hours,1440 nM
same,IC50,HMC-1-8; 72 hours,5250 nM
same,IC50,SUDHL5 [3]; [11],320 nM
same,EC50,SUDHL5 [4]; [12],370 nM
"Cc1c2c(nn1C)COCC(F)(F)CCn1c(C(=O)O)c(CCCOc3cccc4ccccc34)c3ccc(Cl)c-2c31 (single isomer, unassigned; enantiomer 1) [Example 56, 4-chloro-12,12-difluoro-2,3-dimethyl-7-{3-[(naphthalen-1-yl)oxy]propyl}-2,10,11,12,13,15-hexahydropyrazolo[4′,3′:9,10][1,6]oxazacycloundecino[8,7,6-hi]indole-8-carboxylic acid-N-ethylethanamine Salt—Enantiomer 1]",EC50,SUDHL10 [1]; [10],1800 nM
same,IC50,AMO-1; 72 hours,1770 nM
same,IC50,SUDHL5 [2]; 72 hours,1100 nM
same,IC50,HMC-1-8; 72 h,8270 nM
same,IC50,SUDHL5 [3]; [11],590 nM
same,EC50,SUDHL5 [4]; [12],690 nM
same,IC50,SUDHL10 [5]; [13],1600 nM
"CCc1c2c(nn1C)CCCCCCn1c(C(=O)O)c(CCCOc3cccc4ccccc34)c3ccc(Cl)c-2c31 (single isomer, unassigned; enantiomer 2) [Example 53, (−) 4-chloro-3-ethyl-2-methyl-7-{3-[(naphthalen-1-yl)oxy]propyl}-10,11,12,13,14,15-hexahydro-2H-pyrazolo[4′,3′:4,5]azacycloundecino[3,2,1-hi]indole-8-carboxylic acid-N-ethylethanamine Salt—Enantiomer 2]",IC50,AMO-1; 72 hours,11200 nM
same,IC50,HMC-1-8; 72 hours,16800 nM
same,IC50,SUDHL5 [3]; [11],2500 nM
same,EC50,SUDHL5 [4]; [12],3500 nM
